The text below walks through data of PMC3712822 (Pharmacotherapy, 2011).

For data set [1] the following is noted: patients taking atorvastatin; cited from earlier work.
The test system of another data set is human myocytes. Particulars: in vitro; cited from earlier work.
The test system of data set [2] is CYP3A. Particulars: cited from earlier work.
The conditions of data set [3]: for AUC(0-inf) / half-life / Tmax / Cmax: human, plasma, oral; for AUC(0-inf): AUC0–∞; for AUC(0-inf) / Tmax / Cmax: median (IQR); for half-life: harmonic mean ± SD; for Cmax: atorvastatin + clarithromycin 500 mg twice/day.
Data set [4] is described as follows: Plasma clarithromycin partial AUC in the atorvastatin plus clarithromycin phase. The data set is classed as in vivo. As to conditions: human, oral, 500 mg, Partial AUC of clarithromycin (hrs 2–10), clarithromycin 500 mg twice/day, day 4, mean ± SD.
In data set [5] the test system is CYP3A. Particulars: classification by the United States Food and Drug Administration; cited from earlier work.
Setting [6] is: 20 mg, CYP3A5 expressors (n=10), atorvastatin only.
[7] abbreviates: 20 mg, CYP3A5 nonexpressors (n=13), atorvastatin only.
The mark [8] stands for this setting: CYP3A5 expressors (n=10), atorvastatin + clarithromycin.
Where [9] appears, read: CYP3A5 nonexpressors (n=13), atorvastatin + clarithromycin.

Read-outs that look alike come from different tables or passages of the source.

Regarding `CC(C)c1c(C(=O)Nc2ccccc2)c(-c2ccccc2)c(-c2ccc(F)cc2)n1CC[C@@H](O)C[C@@H](O)CC(=O)O` [atorvastatin acid, atorvastatin], the “Patients experiencing muscle-related adverse effects” value in data set [1] was 3–8%.

As usually defined, the AUC(0-inf) is the area under the concentration-time curve extrapolated to infinity. What is called half-life is the time needed for the level to fall by half in the phase considered. The term Tmax denotes the time from dosing to the highest level. The Cmax is the highest concentration seen after dosing. As for `CC(C)c1c(C(=O)Nc2ccccc2)c(-c2ccccc2)c(-c2ccc(F)cc2)n1CC[C@@H]1C[C@@H](O)CC(=O)O1` [atorvastatin lactone], the “Toxicity to human myocytes relative to the acid form” value with human myocytes is on record as “more toxic”. The “Affinity for CYP3A relative to atorvastatin acid” value in the data set with CYP3A [2] is recorded as “higher affinity”. In addition, the “AUC0–∞ higher in nonexpressors than in expressors” value in data set [3] (atorvastatin-only phase, p=0.038) was found to be 36%. Moreover, the AUC(0-inf) was determined as 0.0349 µg·h/mL in data set [3] (setting [6]), 0.0476 µg·h/mL in data set [3] (setting [7]), 0.11 µg·h/mL in data set [3] (setting [8]) and 0.127 µg·h/mL in data set [3] (setting [9]). Further, the half-life was 10.9 ± 4.5 h in data set [3] (setting [6]), 13.6 ± 5.2 h in data set [3] (setting [7]), 19.3 ± 5.4 h in data set [3] (setting [8]) and 19.2 ± 5.2 h in data set [3] (setting [9]). The Tmax came to 2 h in data set [3] (setting [6]), 1 h in data set [3] (setting [7]) and 5 h in data set [3] (setting [8]). Moreover, the Cmax in data set [3] (CYP3A5 expressors (n=10)) and in data set [3] (CYP3A5 nonexpressors (n=13)) was 4.2 ng/mL throughout.

The term AUC denotes concentration integrated over time. With `CC[C@H]1OC(=O)[C@H](C)[C@@H](O[C@H]2C[C@@](C)(OC)[C@@H](O)[C@H](C)O2)[C@H](C)[C@@H](O[C@@H]2O[C@H](C)C[C@H](N(C)C)[C@H]2O)[C@](C)(OC)C[C@@H](C)C(=O)[C@H](C)[C@@H](O)[C@]1(C)O` [clarithromycin], the AUC amounted to 17700 µg·h/mL in data set [4] (CYP3A5 expressors) and 21900 µg·h/mL in data set [4] (CYP3A5 nonexpressors). For the same compound, the CYP3A inhibitor classification result in the data set on CYP3A [5] is reported as “strong CYP3A inhibitor”.
